Test results as given in patent publication US20110112097A1, “Substituted imidazoline-2,4-diones, process for preparation thereof, medicaments comprising these compounds and use thereof” (SANOFI-AVENTIS, priority 2008, published 2011).
Where a name gives a salt, the structure may show the parent alone. Read-outs that look alike come from different tables or passages of the source.

Legend:
hCB1R [1] = biological target: T1, hCB1R (Homo sapiens, UniProt P21554); assay: Binding to the CB1 receptor ([3H]-SR141716A displacement)
T1 sequence (P21554 whole entry): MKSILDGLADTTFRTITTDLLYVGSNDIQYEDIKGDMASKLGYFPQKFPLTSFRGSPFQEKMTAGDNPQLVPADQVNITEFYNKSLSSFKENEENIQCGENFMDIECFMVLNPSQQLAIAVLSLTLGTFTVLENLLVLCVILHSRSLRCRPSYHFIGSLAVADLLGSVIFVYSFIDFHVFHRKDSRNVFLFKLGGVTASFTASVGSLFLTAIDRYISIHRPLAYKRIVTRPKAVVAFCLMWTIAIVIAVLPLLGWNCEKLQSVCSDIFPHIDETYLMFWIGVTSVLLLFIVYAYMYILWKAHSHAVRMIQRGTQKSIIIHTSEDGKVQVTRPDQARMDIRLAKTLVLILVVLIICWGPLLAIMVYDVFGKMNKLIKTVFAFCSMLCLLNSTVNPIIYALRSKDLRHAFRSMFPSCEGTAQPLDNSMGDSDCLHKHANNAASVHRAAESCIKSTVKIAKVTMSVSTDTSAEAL
Procedure: Binding to the CB1 Receptor:
Test compounds: The compounds (3 μl, 10 mM, 100% DMSO), pipetted into 96-well PP microtiter plates, were diluted with 27 μl of 100% DMSO (dimethyl sulfoxide). Proceeding from this solution, further 3-fold dilution steps were undertaken by transferring 10 μl in each case to a new PP microtiter plate and adding a further 20 μl of 100% DMSO. In each case 6 μl of these solutions were transferred into new 96-well PP microtiter plates and made up with 144 μl of assay buffer. The end concentrations ranged from 10 μM to 0.005 μM.
Negative control: AM 251, dissolved in assay buffer with 1% DMSO, was added to the dilution series in the microtiter plates as a control. The end concentration was 1 μM.
Blank control: assay buffer with 1% DMSO was added to the dilution series of the microtiter plates as a blank control.
Summary of the Assay Parameters:
High control: ^3H binding without addition of the compound Low control: ^3H binding in the presence of 1 μM AM 251
The values were calculated using the corrected raw data.
The values reported were obtained as average values of a double determination. The IC50 values were calculated from the measurements with the program Xlfit, formula 205. Ki values were obtained from the IC50 and Kd values utilizing the Cheng-Prusoff equation:
[formula] • Literature: Cheng, Y.-C., and Prusoff, W. H. (1973) Biochem. Pharmacol 22, 3099-3108

hCB1R [2] = biological target: T1, hCB1R; assay: In vitro functional assay with recombinant cells (FLIPR, intracellular Ca2+), CB1; format: cell-based; design: expressed in transfected cells; host or cells: HEK293
Procedure: (§1) In vitro functional assays with recombinant cells:
(§2) Function-testing assays were performed by means of the FLIPR technique (“Fluorometric Imaging Plate Reader”, Molecular Devices Corp.).
(§3) To this end, ligand-induced changes in the intracellular concentration of Ca^2+ in recombinant HEK293 cells, which expressed both a cannabinoid receptor (CB1 or CB2) and G-protein Galpha16, were determined. For the studies, cells were sown into 96-well microtiter plates (60 000 cells/well) and left to grow overnight. The medium was removed and the cells were incubated in buffer which contained the fluorescent dye Fluo-4. After this loading with dye, the cells were washed, test substance was added dissolved in buffer, the mixture was incubated for 20 minutes, a known cannabinoid receptor agonist as a reference agonist was added in buffer and, finally, the changes in the intracellular Ca^2+ concentration were measured in the FLIPR unit.

hCB2R = biological target: T2, hCB2R (Homo sapiens, UniProt P34972); assay: In vitro functional assay with recombinant cells (FLIPR, intracellular Ca2+), CB2; format: cell-based; conditions: recombinant HEK293 cells expressing CB2 and G-protein Galpha16; 20 min preincubation, then reference agonist; Ca2+ change (Fluo-4)
T2 construct: expressed in transfected cells; host or cells: HEK293
T2 sequence (P34972 whole entry): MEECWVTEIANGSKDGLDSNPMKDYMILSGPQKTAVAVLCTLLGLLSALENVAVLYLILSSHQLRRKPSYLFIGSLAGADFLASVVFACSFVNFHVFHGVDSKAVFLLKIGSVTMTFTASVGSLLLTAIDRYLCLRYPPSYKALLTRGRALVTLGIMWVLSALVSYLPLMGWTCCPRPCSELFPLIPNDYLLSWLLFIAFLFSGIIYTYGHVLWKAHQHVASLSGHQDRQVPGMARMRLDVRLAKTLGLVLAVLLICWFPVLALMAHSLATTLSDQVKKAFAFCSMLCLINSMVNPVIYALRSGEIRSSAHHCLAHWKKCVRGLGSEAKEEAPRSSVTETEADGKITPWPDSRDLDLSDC
Procedure: as §1, §2, §3
Results were presented as the percentage change relative to the control (0%: analogous experiment without test substance and without reference agonist, i.e. only with buffer; 100%: analogous experiment without test substance, but with reference agonist in excess), and used to calculate dose/action curves, and IC50 values were determined

[3] = CHO-K1/cannabinoid CB1 protein 2 μg/well, [3H]-SR141716A 0.5 nM, Ki from IC50 by Cheng-Prusoff, average of double determination, read-out: hCB1R, binding Ki
[4] = recombinant HEK293 cells expressing CB1 and G-protein Galpha16, 20 min preincubation, then reference agonist, Ca2+ change (Fluo-4), read-out: hCB1R: FLIPR, IC50

| Compound | Ki (hCB1R [1]; [3]) [nM] | other results |
| --- | --- | --- |
| CC1(C)C(=O)N(c2ccc(Oc3ccc(Cl)cc3)c(C(F)(F)F)c2)C(=O)N1Cc1ccccc1Cc1ccccc1 [Example 101, 1-(2-Benzylbenzyl)-3-[4-(4-chlorophenoxy)-3-trifluoromethylphenyl]-5,5-dimethylimidazolidine-2,4-dione] | 99 |  |
| CC1(C)C(=O)N(c2cccc(C(F)(F)F)c2)C(=O)N1Cc1ccccc1Cc1ccccc1 [Example 7] | 95 |  |
| N#Cc1ccc(N2C(=O)N(Cc3ccccc3Cc3ccccc3)C3(CCCCC3)C2=O)cc1C(F)(F)F [Example 114, 4-[1-(2-Benzylbenzyl)-2,4-dioxo-1,3-diazaspiro[4.5]dec-3-yl]-2-trifluoromethylbenzonitrile] | 63 |  |
| CC1(C)C(=O)N(c2cc(C(F)(F)F)ccc2F)C(=O)N1Cc1ccccc1Cc1ccccc1 [Example 11] | 132 |  |
| CC1(C)C(=O)N(c2ccc(F)c(C(F)(F)F)c2)C(=O)N1Cc1ccccc1Cc1ccccc1 [Example 79] |  | IC50 (hCB1R [2]; [4]): 103 nM; Ki (hCB1R [1]): 44 nM; IC50 (hCB2R): > 10000 nM |
| CC1(C)C(=O)N(c2ccc(F)c(F)c2)C(=O)N1Cc1ccccc1Cc1ccccc1 [Example 41] | 188 |  |
| CCc1cccc(N2C(=O)N(Cc3ccccc3Cc3ccccc3)C(C)(C)C2=O)c1 [Example 1, 1-(2-Benzylbenzyl)-3-(3-ethylphenyl)-5,5-dimethylimidazolidine-2,4-dione] | 218 |  |
| CC1(C)C(=O)N(c2ccc(Cl)c(Cl)c2)C(=O)N1Cc1ccccc1Cc1ccccc1 [Example 64] | 97 |  |
| CN1CCC2(CC1)C(=O)N(c1ccc(C#N)c(C(F)(F)F)c1)C(=O)N2Cc1ccccc1Cc1ccccc1 [Example 111, 4-[1-(2-Benzylbenzyl)-8-methyl-2,4-dioxo-1,3,8-triazaspiro[4.5]dec-3-yl]-2-trifluoromethylbenzo-nitrile; trifluoroacetate] | 61 |  |
| CC1(C)C(=O)N(c2ccnc(Cl)c2)C(=O)N1Cc1ccccc1Cc1ccccc1 [Example 117, 1-(2-Benzylbenzyl)-3-(2-chloropyridin-4-yl)-5,5-dimethylimidazolidine-2,4-dione] | 94 |  |
| CC1(C)C(=O)N(c2ccc(C#N)c(C(F)(F)F)c2)C(=O)N1Cc1ccc(F)cc1C(=O)c1ccc(C(F)(F)F)cc1 [Example 155, 4-{3-[4-Fluoro-2-(4-trifluoromethylbenzoyl)-benzyl]-4,4-dimethyl-2,5-dioxoimidazolidin-1-yl}-2-trifluoromethylbenzonitrile] | 69 |  |
| CC1(C)C(=O)N(c2cccc(SC(F)(F)F)c2)C(=O)N1Cc1ccccc1Cc1ccccc1 [Example 13] | 66 |  |
| CC1(C)C(=O)N(c2cccc(C#N)c2)C(=O)N1Cc1ccccc1Cc1ccccc1 [Example 16] | 174 |  |
| N#Cc1ccc(N2C(=O)N(Cc3ccccc3Cc3ccccc3)C3(CCC3)C2=O)cc1C(F)(F)F [Example 107, 4-[5-(2-Benzylbenzyl)-6,8-dioxo-5,7-diazaspiro[3.4]-oct-7-yl]-2-trifluoro-methylbenzonitrile] |  | IC50 (hCB1R [2]): 43 nM; Ki (hCB1R [1]): 12 nM; IC50 (hCB2R): > 10000 nM |
| CC1(C)C(=O)N(c2ccc(C#N)c(C(F)(F)F)c2)C(=O)N1Cc1ccccc1Cc1ccccc1 [Example 88, 4-[3-(2-benzylbenzyl)-4,4-dimethyl-2,5-dioxoimidazolidin-1-yl]-2-trifluoromethylbenzonitrile] |  | IC50 (hCB1R [2]): 13 nM; Ki (hCB1R [1]): 2 nM; IC50 (hCB2R): > 30000 nM |
| CC1(C)C(=O)N(c2ccnc(C(F)(F)F)c2)C(=O)N1Cc1ccccc1Cc1ccccc1 [Example 119, 1-(2-Benzylbenzyl)-5,5-dimethyl-3-(2-trifluoromethylpyridin-4-yl)imidazolidine-2,4-dione; hydrochloride] | 23 | IC50 (hCB1R [2]): 97 nM |
| COC(=O)c1ccc(Cc2ccccc2CN2C(=O)N(c3ccc(C#N)c(C(F)(F)F)c3)C(=O)C2(C)C)cc1 [Example 143, methyl 4-{2-[3-(4-cyano-3-trifluoromethylphenyl)-5,5-dimethyl-2,4-dioxoimidazolidin-1-ylmethyl]benzyl}benzoate] | 13 | IC50 (hCB1R [2]): 65 nM |
| CC1(C)C(=O)N(c2ccc(C#N)c(C(F)(F)F)c2)C(=O)N1Cc1ccc(F)cc1C(=O)c1ccc(Cl)cc1 [Example 139, 4-{3-[2-(4-Chloro-benzoyl)-4-fluorobenzyl]-4,4-dimethyl-2,5-dioxo-imidazolidin-1-yl}-2-trifluoromethylbenzonitrile] | 77 |  |
| CC1(C)C(=O)N(c2ccc(C#N)c(C(F)(F)F)c2)C(=O)N1Cc1ccc(C(=O)c2ccccc2)cc1 [Example 132, 4-[3-(4-benzoylbenzyl)-4,4-dimethyl-2,5-dioxo-imidazolidin-1-yl]-2-trifluoromethylbenzonitrile] |  | IC50 (hCB1R [2]; [4]): 103 nM; Ki (hCB1R [1]): 74 nM; IC50 (hCB2R): > 10000 nM |
| N#Cc1ccc(N2C(=O)N(Cc3ccccc3Cc3ccccc3)C3(CCCC3)C2=O)cc1C(F)(F)F [Example 106, 4-[1-(2-Benzylbenzyl)-2,4-dioxo-1,3-diazaspiro[4.4]-non-3-yl]-2-trifluoro-methylbenzonitrile] |  | IC50 (hCB1R [2]): 76 nM; Ki (hCB1R [1]): 11 nM; IC50 (hCB2R): > 10000 nM |
| CSc1cccc(N2C(=O)N(Cc3ccccc3Cc3ccccc3)C(C)(C)C2=O)c1 [Example 4] | 217 |  |
| CC1(C)C(=O)N(c2ccc(C#N)c(S(F)(F)(F)(F)F)c2)C(=O)N1Cc1ccccc1Cc1ccccc1 [Example 102, 4-[3-(2-Benzylbenzyl)-4,4-dimethyl-2,5-dioxo-imidazolidin-1-yl]-2-pentafluorosulfanyl-benzonitrile] | 19 | IC50 (hCB1R [2]): 45 nM |
| N#Cc1ccc(N2C(=O)N(Cc3ccccc3Cc3ccccc3)C3(CCCCCC3)C2=O)cc1C(F)(F)F [Example 116, 4-[1-(2-Benzylbenzyl)-2,4-dioxo-1,3-diazaspiro[4.6]undec-3-yl]-2-trifluoromethylbenzonitrile] | 26 |  |
| CC1(C)C(=O)N(c2ccc(C#N)c(C(F)(F)F)c2)C(=O)N1Cc1ccc(F)cc1C(=O)c1ccc(C#N)cc1 [Example 150, 4-{3-[2-(4-Cyano-benzoyl)-4-fluorobenzyl]-4,4-dimethyl-2,5-dioxo-imidazolidin-1-yl}-2-tri-fluoromethylbenzonitrile] | 18 | IC50 (hCB1R [2]): 11 nM |
| COC(=O)c1ccc(Cc2ccccc2CN2C(=O)N(c3ccc(F)c(C(F)(F)F)c3)C(=O)C2(C)C)cc1 [Example 144, methyl 4-{2-[3-(4-fluoro-3-trifluoromethylphenyl)-5,5-dimethyl-2,4-dioxoimidazolidin-1-ylmethyl]benzyl}benzoate] | 37 |  |
| COC(=O)c1ccc(C(=O)c2ccc(CN3C(=O)N(c4ccc(F)c(C(F)(F)F)c4)C(=O)C3(C)C)cc2)cc1 [Example 151, Methyl 4-{4-[3-(4-fluoro-3-trifluoromethylphenyl)-5,5-dimethyl-2,4-dioxo-imidazolidin-1-ylmethyl]-benzoyl}benzoate] | 62 |  |
| CC1(C)C(=O)N(c2ccc(C#N)nc2)C(=O)N1Cc1ccccc1Cc1ccccc1 [Example 123, 543-(2-Benzylbenzyl)-4,4-dimethyl-2,5-dioxo-imidazolidin-1-yl]pyridine-2-carbonitrile; hydrochloride] | 140 |  |
| CC(C)(C)c1cc(N2C(=O)N(Cc3ccccc3Cc3ccccc3)C(C)(C)C2=O)ccc1C#N [Example 118, 4-[3-(2-Benzylbenzyl)-4,4-dimethyl-2,5-dioxo-imidazolidin-1-yl]-2-tert-butylbenzonitrile] |  | IC50 (hCB1R [2]; [4]): 114 nM; Ki (hCB1R [1]): 5 nM; IC50 (hCB2R): > 10000 nM |
| CC1(C)C(=O)N(c2cc(Cl)cc(Cl)c2)C(=O)N1Cc1ccccc1Cc1ccccc1 [Example 65] | 153 |  |
